Results: patent US20230227466A1, “SUBSTITUTED THIENOPYRIMIDINES THAT INTERACT WITH THE RAS SUPERFAMILY FOR THE TREATMENT OF CANCERS, INFLAMMATORY DISEASES, RASOPATHIES, AND FIBROTIC DISEASE” (SHY Therapeutics, LLC, priority 2020, published 2023)
Like-named read-outs stand apart in the source and are kept apart here.

How the values were obtained:
[1] = target: GTP binding domain of Ras (Homo sapiens, UniProt P01112); conditions: literature (Feuerstein 1987; John 1990); cited from earlier work
Rac-1 [2] = target: T1, Rac-1 (Homo sapiens, UniProt P63000); experiment: Scintillation Proximity Assay (SPA) GTP affinity; conditions: read-out: SPA GTP affinity for binding domain
[3] = target: K-Ras GTP binding domain (wild type and mutant K-Ras); experiment: SPA and MST studies, GTP affinity across K-Ras forms
Source text: (§1) This therefore led to the novel, unanticipated conclusion that compounds such as small molecules could be discovered that would bind to a Ras GTP binding domain and compete with the binding of GTP to Ras.
(§2) See Khawaja et al., “Scintillation proximity assay in lead discovery”, Expert Opin. Drug Discov., 2008 November; 3(11):1267-80 regarding SPA procedures. See the following references regarding MST technology: Wienken et al., Nature Communications (2010), Protein binding assays in biological liquids using MicroScale Thermophoresis; Jerabek-Willemsen et al., ASSAY and Drug Development Technologies (2011), Molecular interaction studies using MicroScale Thermophoresis; Lin et al., Cell (2012), Inhibition of basal FGF receptor signaling by dimeric Grb2; Seidel et al., Angewandte Chemie (2012), Label-Free MicroScale Thermophoresis discriminates sites and affinity of protein-ligand binding; Seidel et al., Methods (2012), MicroScale Thermophoresis quantifies biomolecular interactions under previously challenging conditions; Parker & Newstead, Nature (2014), Molecular basis of nitrate uptake by the plant nitrate transporter NRT1.1; and Jerabek-Willemsen et al., Journal of Molecular Structure (2014), MicroScale Thermophoresis: Interaction analysis and beyond.

Rho-A [4] = target: T2, Rho-A (Homo sapiens, UniProt P61586); experiment: Scintillation Proximity Assay (SPA) GTP affinity; conditions: read-out: SPA GTP affinity for binding domain
Rac-1 [5] = target: T1, Rac-1; experiment: MicroScale Thermophoresis (MST) GTP affinity; conditions: read-out: MST GTP affinity for binding domain
Source text: (§3) As disclosed in International Application No. PCT/US2018/038613 and U.S. patent application Ser. No. 16/013,872, the affinity of GTP for the GTP binding domain of K-Ras utilizing a Scintillation Proximity Assay (SPA) and MicroScale Thermophoresis (MST) has been measured. These methods were not available when Wittinghofer and colleagues undertook their studies.
as §1, §2

Rho-A [6] = target: T2, Rho-A; experiment: MicroScale Thermophoresis (MST) GTP affinity; conditions: read-out: MST GTP affinity for binding domain
Source text: as §3, §1, §2

K-Ras (G12C) [7] = target: T3, K-Ras (G12C) (Homo sapiens, UniProt P01116, G12C); experiment: MicroScale Thermophoresis (MST) GTP affinity; conditions: read-out: MST GTP affinity for binding domain
Source text: as §3, §1, §2

K-Ras (G12D) [8] = target: T4, K-Ras (G12D) (Homo sapiens, UniProt P01116, G12D); experiment: MicroScale Thermophoresis (MST) GTP affinity; conditions: read-out: MST GTP affinity for binding domain
Source text: as §3, §1, §2

K-Ras (Q61H) [9] = target: T5, K-Ras (Q61H) (Homo sapiens, UniProt P01116, Q61H); experiment: MicroScale Thermophoresis (MST) GTP affinity; conditions: read-out: MST GTP affinity for binding domain
Source text: as §3, §1, §2

KRas wild type [10] = target: T6, KRas wild type (Homo sapiens, UniProt P01116); experiment: MicroScale Thermophoresis (MST) GTP affinity; conditions: read-out: MST GTP affinity for binding domain
Source text: as §3, §1, §2

K-Ras (G12C) [11] = target: T3, K-Ras (G12C); experiment: Scintillation Proximity Assay (SPA) GTP affinity; conditions: read-out: SPA GTP affinity for binding domain
Source text: as §3, §1, §2

K-Ras (G12D) [12] = target: T4, K-Ras (G12D); experiment: Scintillation Proximity Assay (SPA) GTP affinity; conditions: read-out: SPA GTP affinity for binding domain
Source text: as §3, §1, §2

K-Ras (Q61H) [13] = target: T5, K-Ras (Q61H); experiment: Scintillation Proximity Assay (SPA) GTP affinity; conditions: read-out: SPA GTP affinity for binding domain
Source text: as §3, §1, §2

KRas wild type [14] = target: T6, KRas wild type; experiment: Scintillation Proximity Assay (SPA) GTP affinity; conditions: read-out: SPA GTP affinity for binding domain
Source text: as §3, §1, §2

Rac-1 and Rho-A = experiment: SPA and MST studies, GTP affinity for Rho subfamily members; conditions: read-out: affinity of GTP for the binding domain of Rac-1 and Rho-A members of the Rho subfamily
Source text: as §1, §2

Rac-1 [15] = target: T1, Rac-1; experiment: Ras GTP binding domain inhibition assay (labeled-GTP competition, cell-free); design: made in house
Source text: (§4) This is a competitive binding assay. It involves the immobilization of a protein on solid phase, interaction with a small molecule drug candidate, and then competitive binding with a labeled native GTP or GDP ligand.
(§5) In theory, the assay is suitable for use with any GTP or GDP binding protein.
(§6) The following method was developed as specific assay for the following proteins: KRas wild type, KRas Q61H mutant, KRas G12C mutant, KRas G12D mutant, Rac-1, and Rho-A.
(§7) The small GTPases proteins: KRas wild type. KRas Q61H mutant, KRas G12C mutant, KRas G12D mutants, Rac-1, and Rho-A were expressed as His-tagged proteins. In addition, the Guanosine nucleotide Exchange Factor (GEF) Sos protein (residues 556-1049) was expressed as a His-tagged protein. In cells, the guanine nucleotide exchange factor Sos protein promotes activation of Ras proteins by stimulating an exchange of GDP for GTP. The inclusion of Sos to the Ras GTP binding domain inhibition assay may be considered as an alternative representation of physiological cellular conditions for evaluating the inhibitory activity of some of the tested small molecules.
(§8) For the assay, all purified small GTPases proteins were diluted in Buffer-I or Buffer-II to a final concentration of 10-30 μg/mL. 200 μL of each diluted protein was added to a nickel-coated 96-well plate and incubated overnight at 4° C. Then the protein solution was discarded and 200 μL of Buffer-I or Buffer-II was added to each well in the presence of 1% DMSO. Compounds to be tested were added to the protein-coated wells at final concentration of 20 μM, and incubated for 3 hours at room temperature with and without 10-30 μg/mL of Sos added to the final hour of the incubation. When performing IC50 measurements a serial dilution of all tested concentrations was added. Then Cy3-GTP or Cy5-GTP was added to each well to a final concentration of 100 nM. The labeled GTP was incubated for 45 minutes at room temperature. Following GTP incubation, wells were washed 3× in Buffer-I or Buffer-II and 200 μL of Buffer-I or Buffer-II was added to each well. Following washes, the amount of bound labeled-GTP was measured using a SpectraMax M3 (Molecular Devices).

Rho-A [16] = target: T2, Rho-A; experiment: as above; design: made in house
Source text: as §4, §5, §6, §7, §8

KRas wild type [17] = target: T6, KRas wild type; experiment: as above; design: made in house
Source text: as §4, §5, §6, §7, §8

KRas G12D mutant = target: T7, KRas G12D mutant (Homo sapiens, UniProt P01116, G12D); experiment: as above
T7 construct: made in house
Source text: as §4, §5, §6, §7, §8

KRas G12C mutant = target: T8, KRas G12C mutant (Homo sapiens, UniProt P01116, G12C); experiment: as above
T8 construct: made in house
Source text: as §4, §5, §6, §7, §8

KRas Q61H mutant = target: T9, KRas Q61H mutant (Homo sapiens, UniProt P01116, Q61H); experiment: as above
T9 construct: made in house
Source text: as §4, §5, §6, §7, §8

[18] = system: MIA-PaCa-2 pancreatic cancer cell line (KRAS G12C); experiment: Cell proliferation assay (CellTiter 96 Aqueous One); format: cell-based; conditions: Homo sapiens
Description: Cell lines: Human tumor-derived cell lines were purchased from American Type Culture Collection. Human tumor-derived pancreatic cancer cell line MIA-PACA2 (having a KRAS G12C mutation) and Panc-1 (having a KRAS G12D mutation), and Human non-small cell lung cancer (NSCLC) cell line A549 (having a KRAS G12S mutation) were grown in complete DMEM-High Glucose. Human colon cancer cell line SW-620 (having a KRAS G12V mutation) was grown in RPMI. All cell lines were supplemented with penicillin (100 U/mL), streptomycin (100 μg/mL), and 10% heat-inactivated FBS at 37° C. in a humidified incubator with 5% CO2.
Method: Cells were plated at 2000 to 5000 cells/well density in 96-wells plate and cultured overnight. Small molecules to be tested were added to the cells in the final concentration of 10 μM in the presence of 0.3% DMSO and 10% FBS, and incubated for 2-4 days at 37° C. in a humidified incubator with 5% CO2. For IC50 value determination, serial dilutions of compounds were added to cells under the same conditions.
Assay: At the end of the incubation period, cell viability was measured using the CellTiter 96® Aqueous One Solution Cell Proliferation Assay according to manufacturer specifications (Promega, Madison, Wis.). The percentage of small molecules inhibition of cellular proliferation was calculated from raw data.

[19] = without SOS, read-out: Rac-1: % inh.
[20] = without SOS, read-out: Rho-A: % inh.
[21] = with SOS, read-out: KRas wild type + SOS: % inh.
[22] = without SOS, read-out: KRas wild type: % inh.
[23] = with SOS, read-out: KRas G12D mutant + SOS: % inh.
[24] = without SOS, read-out: KRas G12D mutant: % inh.
[25] = with SOS, read-out: KRas G12C mutant + SOS: % inh.
[26] = without SOS, read-out: KRas G12C mutant: % inh.
[27] = with SOS, read-out: KRas Q61H mutant + SOS: % inh.
[28] = without SOS, read-out: KRas Q61H mutant: % inh.

Row | inhibition at 20 µM (Rac-1 [15]; [19]) | inhibition at 20 µM (Rho-A [16]; [20]) | inhibition at 20 µM (KRas wild type [17]; [21]) | inhibition at 20 µM (KRas wild type [17]; [22]) | inhibition at 20 µM (KRas G12D mutant; [23]) | inhibition at 20 µM (KRas G12D mutant; [24]) | inhibition at 20 µM (KRas G12C mutant; [25]) | inhibition at 20 µM (KRas G12C mutant; [26]) | inhibition at 20 µM (KRas Q61H mutant; [27]) | inhibition at 20 µM (KRas Q61H mutant; [28]) | SMILES | affinity for the GTP binding domain of Ras [1] | other results
1 |  |  |  |  |  |  |  |  |  |  | Nc1nc2c(ncn2[C@@H]2O[C@H](COP(=O)(O)OP(=O)(O)OP(=O)(O)O)[C@@H](O)[C@H]2O)c(=O)[nH]1 [GTP] | single to double digit picomolar | Kd (Rac-1 [2]): 0.151 ± 0.014 µM; Kd [3]: 0.1 to 0.465 µM; Kd (Rho-A [4]): 0.129 ± 0.012 µM; Kd (Rac-1 [5]): 0.166 ± 0.01 µM; Kd (Rho-A [6]): 0.13 ± 0.005 µM; Kd (K-Ras (G12C) [7]): 0.207 ± 0.046 µM; Kd (K-Ras (G12D) [8]): 0.244 ± 0.012 µM; Kd (K-Ras (Q61H) [9]): 0.157 ± 0.021 µM; Kd (KRas wild type [10]): 0.463 ± 0.002 µM; Kd (K-Ras (G12C) [11]): 0.258 ± 0.018 µM; Kd (K-Ras (G12D) [12]): 0.27 ± 0.015 µM; Kd (K-Ras (Q61H) [13]): 0.118 ± 0.011 µM; Kd (KRas wild type [14]): 0.243 ± 0.015 µM; Kd (Rac-1 and Rho-A): 0.12 to 0.17 µM
2 |  |  |  |  |  |  |  |  |  |  | Nc1nc2c(ncn2[C@@H]2O[C@H](COP(=O)(O)OP(=O)(O)O)[C@@H](O)[C@H]2O)c(=O)[nH]1 [GDP] | single to double digit picomolar | 
3 | 76 to 100% | 76 to 100% | 76 to 100% | 76 to 100% | 76 to 100% | 51 to 75% | 76 to 100% | 51 to 75% | 76 to 100% | 51 to 75% | Oc1nc(-c2ccccn2)nc2c(-c3ncccc3F)csc12 [Compound 27, 7-(3-Fluoropyridin-2-yl)-2-(pyridin-2-yl)thieno[3,2-d]pyrimidin-4-ol] |  | inhibition at 20 µM (Rac-1 [15]; with SOS, read-out: Rac-1 + SOS: % inh.): 76 to 100%; inhibition at 20 µM (Rho-A [16]; with SOS, read-out: Rho-A + SOS: % inh.): 76 to 100%; IC50 (KRas Q61H mutant; with SOS): 1 to 4.99 µM; IC50 ([18]; MIA PaCa-2, MIA PaCa-2): 1 to 4.99 µM; inhibition at 10 µM ([18]; 10 μM, MIA PaCa-2, read-out: % inh cell proliferation (10 μM) in MIA PaCa-2): 76 to 100%
4 | 1 to 25% | 51 to 75% | 0% | 26 to 50% | 1 to 25% | 26 to 50% | 1 to 25% | 26 to 50% | 1 to 25% | 1 to 25% | Oc1nc(-c2ccc3[nH]ncc3n2)nc2c(-c3ccccn3)csc12 [Compound 93, 2-(1H-Pyrazolo[4,3-b]pyridin-5-yl)-7-(pyridin-2-yl)thieno[3,2-d]pyrimidin-4-ol] |  | 
